This note sets out measurements from patent US20250127804A1, “RIBOSE LINKERS AND CONJUGATES THEREOF” (ELYSIUM HEALTH INC., priority 2022, published 2025).

Several values for one entry are separate records, joined by “and”; a condition that tells them apart may be missing. Equal entries are not always repeated. Entries after “also recorded” stand apart in the source; their conditions may differ. Where two headings read alike, the source gives them in different places.

For data set [1], the system named is purine nucleoside phosphorylase (PNP). Nature of the data set: PNP enzyme activity assay (release of NAM monitored by 1H NMR). It is filed as in vitro ADME. The following applies: for stability to PNP (in words): triflates dissolved in DMSO; for overall trend of stability of NR esters to PNP: rank order; for ester hydrolysis / deprotection observed during PNP incubation: over time. How it is done:
To ensure that the stability rather than the solubility could be investigated, both the triflate and the chloride form of NRLR (“NRLR-OTf” and “NRLR-Cl”, respectively) were tested for their stability in aqueous buffers and as substrates of the enzyme purine nucleoside phosphorylase (PNP). The release of nicotinamide (NAM) was measured, which is indicative of water-catalyzed hydrolysis. Further, the release of ribose vs. phosphoriboside was monitored, which is indicative of PNP activity. Loss of esters via hydrolysis in buffer catalyzed condition also occurs over time. Once the C5-hydroxyl is free, PNP recognizes the nucleoside and catalyze phosphorolysis. It is not known whether this hydrolysis must occur for all the esters before PNP can act on the nucleoside. The scheme below illustrates the reaction with a partially deprotected nucleoside.
Phosphorolysis of NRCl by PNP (Sigma Aldrich) was performed in HEPES buffer, containing KH2PO4 and 10% D2O at 25° C. and was monitored by 1H NMR.
Incubations were conducted in the NMR tube which contained a final volume of 505 μl including 450 μl HEPES buffer (100.0 mM, pH 7.0), containing 100 mM KH2PO4, 50.0 μl NRCl (100.0 mM in 1 mL D2O) and when appropriate 5 μl PNP (1 mg dissolved in 50 μl HEPES buffer) was added and measurements were taken at t=5 min and 15 min.
Similarly, PNP study of NRAD-triflate was conducted in DMSO.

The nature of data set [2]: Octanol-water partition coefficient (Pow) by 1H NMR. The format is physicochemical. On the procedure:
The experiment was performed as described in “Measuring Lipophilicity with NMR,” SpinSolve Carbon®, MagriTek (2014). Briefly, ^1H NMR spectra were recorded for NRLR-Cl in D2O, then an equivalent volume of 1-octanol was added to the same NMR tube, and the ^1H NMR was recorded again. The measurements were performed in triplicate. The Pow was calculated based on the concentrations of the NRLR-Cl in the D2O layer and in the octanol layer, as determined based on the NMR peak values. The average measured log POW of NRLR-Cl is 1.816.

A further data set is described as follows: Solubility in water. The format is physicochemical.
In data set [3] the test system is enhanced lipase (Candida rugens). The data set is described as follows: Lipase assay. It is filed as in vitro ADME. How it is done: NRLR was subjected to a lipase assay in 10% DMSO, 450 μL HEPES buffer, and enhanced lipase (Candida rugens).
[4] abbreviates: 1-octanol/D2O, single experiment, listed as NRLR-CI.

`NC(=O)c1ccc[n+]([C@@H]2O[C@H](CO)[C@@H](O)[C@H]2O)c1` [NRCl, Nicotinamide riboside, reference compound]: the “stability to PNP (in words)” value in data set [1] (1H NMR) was “least stable to PNP enzyme”. For the same compound, the “time to complete conversion/degradation to NAM after PNP addition” value in data set [1] (HEPES buffer pH 7.0, KH2PO4, 10% D2O, 25° C., 1H NMR, listed as NR) is reported as at most 5 min. Further, the “overall trend of stability of NR esters to PNP” value (shortened to “overall trend”) in data set [1] is “NRTA>NRAD>NRML>NRLR>NRCl”.

On to `CC(=O)OC[C@H]1O[C@@H]([n+]2cccc(C(N)=O)c2)[C@H](OC(C)=O)[C@@H]1OC(C)=O` [NRTA, NR triacetate, reference compound], for which, in data set [1] (1H NMR), the “stability to PNP (in words)” value is given as “stable to PNP; also recorded: more stable to PNP than NRCL” and the “ester hydrolysis / deprotection observed during PNP incubation” value was “Slow partial ester hydrolysis”. Also, in data set [1] (after 24 hours), the “hydrolysis and NAM release with PNP” value was “very slowly hydrolyzed and releases NAM”. For the same compound, in data set [1], the “overall trend” value is recorded as “NRTA>NRAD>NRML>NRLR>NRCl”.

Regarding `CC(=O)O[C@@H]1[C@H](OC(C)=O)[C@@H](COC(=O)CC(=O)OC[C@H]2O[C@@H]([n+]3cccc(C(N)=O)c3)[C@H](OC(C)=O)[C@@H]2OC(C)=O)O[C@H]1[n+]1cccc(C(N)=O)c1` [compound 8a, NR malonate], the “stability to PNP (in words)” value in data set [1] (1H NMR) is “less stable compared to NR adipate”. The “remaining NR diester peaks” value in data set [1] (PNP, after 2 days (FIG. 40B)) is given as “still showed some NR diester peaks”. For the same compound, the “overall trend” value in data set [1] is listed as “NRTA>NRAD>NRML>NRLR>NRCl”.

Consider `CCCCCCCCCCCC(=O)OC[C@H]1O[C@@H]([n+]2cccc(C(N)=O)c2)[C@H](OC(C)=O)[C@@H]1OC(C)=O` [NRLR-Cl, NRLR-Chloride], for which the “Average (LogPow)” value in data set [2] (1-octanol/D2O, average of triplicate) amounted to 1.816. Moreover, the logP in data set [2] (1-octanol/D2O, average of triplicate, read-out: Average (LogPow)) was 1.82. In data set [2] (setting [4]), the LogPow was 1.89 and 1.80 and 1.76; the Pow was 78.66 and 63.33 and 58.88. For the same compound, in data set [2] (1H NMR in D2O before octanol addition, listed as NRLR-CI), the “Peak values in water layer” value is 0.0478 and 0.0386 and 0.0539. For the same compound, the “Peak values after octanol addition” value in data set [2] (1H NMR, D2O layer after equivalent volume of 1-octanol, listed as NRLR-CI) is 0.0006 and 0.0009. The solubility in water entry in the data set “Solubility in water” is listed as “soluble in water”.

For `CC(=O)O[C@@H]1[C@H](OC(C)=O)[C@@H](COC(=O)CCCCC(=O)OC[C@H]2O[C@@H]([n+]3cccc(C(N)=O)c3)[C@H](OC(C)=O)[C@@H]2OC(C)=O)O[C@H]1[n+]1cccc(C(N)=O)c1` [compound 8d, NR adipate], in data set [1] (1H NMR), the “stability to PNP (in words)” value was “appears stable to PNP” and the “ester hydrolysis / deprotection observed during PNP incubation” value is on record as “ester dimer appeared to remain intact”. The “remaining NR diester peaks” value in data set [1] (PNP, after 2 days (FIG. 40B)) is reported as “still showed some NR diester peaks”. In data set [1], the “overall trend” value is listed as “NRTA>NRAD>NRML>NRLR>NRCl”.

As for “NR-laurate (NRLR) triflate [compound 8g]”, the solubility in water entry in the data set “Solubility in water” is “not completely soluble in water”. Also, in “Solubility in water” (listed as NRLR-OTf), the solubility in water entry is on record as “is not”. Further, the “partial loss of one ester” value in data set [3] is reported as under 5%. In addition, in data set [3] (over 12 hours of incubation), the “effect of increased concentration of lipase” value is “no effect”. For the same compound, in data set [1] (1H NMR), the “stability to PNP (in words)” value is “less stable compared to NR adipate” and the “ester hydrolysis / deprotection observed during PNP incubation” value is recorded as “partial deprotection of the esters over time”. In data set [1] (PNP, after 1 day (FIG. 40A)), the “increase in NAM” value is given as 30%. Further, the “degraded to NAM” value in data set [1] (PNP, after 2 days (FIG. 40B)) is about 90%. The “overall increase in NAM” value in data set [1] (PNP, over 24 hours) is 17%. In data set [1], the “overall trend” value is reported as “NRTA>NRAD>NRML>NRLR>NRCl”.
